Measurements reported in patent US20120258960A1, “NOVEL MULTIFUNCTIONAL PEPTIDASE INHIBITORS, ESPECIALLY FOR MEDICAL USE” (IMTM GMBH, priority 2009, published 2012).

Assays:
T lymphocytes = assay: Inhibition of proliferation of PHA-stimulated T lymphocytes (tritium thymidine incorporation); assay type: cell-based; conditions: Homo sapiens, T-lymphocyte, 1 μg/ml Phytohemagglutinine, 48 hours, test compounds 0.1-250 μM, read-out: T cells IC50
Experimental: (§1) Peripheral blood mononuclear cells (PBMC) from healthy human volunteers were freshly isolated by density gradient centrifugation. T lymphocytes (T cells, Tc) were isolated from PBMC fractions via nylon wool adherence. Cells were cultured in standard cell culture media and stimulated by addition of 1 μg/ml Phytohemagglutinine for 48 hours in 96 well flat-bottom microtitre plates. Test compounds were added at concentration ranges from 0.1-250 μM over the total assay period.
DNA synthesis of proliferating T cells was determined by incorporation of radio labelled tritium thymidine and subsequent radio detection.
(§2) Data output was based on raw data and calculation of relative proliferation response in relation to PHA-activated T cells in the absence of test compound (100% control).
(§3) The […] value of proliferation suppression was assessed by graphical evaluation.

[1] = tested on: human peripheral blood mononuclear cells; assay: Inhibition of proliferation of PHA-stimulated mononuclear cells (BrdU incorporation); assay type: cell-based; conditions: PBMC, 1 μg/ml Phytohemagglutinine, 48 hours, test compounds 0.1-250 μM, read-out: MNC IC50
Experimental: as §1
DNA synthesis of proliferating PBMC was assessed by incorporation of nucleotide analogue bromdesoxyuridine (BrdU) and subsequent detection of optical density (OD) at 450 nm.
as §2, §3

Row | Compound | IC50 (T lymphocytes) | IC50 [1]
1 | NC(CC(=O)NCC1(CNC(=O)C(O)C(N)Cc2ccccc2)CCC1)Cc1cc(F)ccc1F (centres unmarked) [drawing 263] | 19.2 µM | 29.9 µM
2 | CN(CCCNC(=O)OCc1ccccc1)C(=O)C(O)C(N)Cc1ccccc1 (centres unmarked) [drawing 278] | ≥ 200 µM | 149 µM
3 | CCCCCCCCCC(=O)OC(C(=O)NCC(C)(C)CNC(=O)CC(N)Cc1cc(F)ccc1F)C(N)Cc1ccccc1 (centres unmarked) [drawing 254] | 3.1 µM | 2.5 µM
4 | CC(C)(CNC(=O)CC(N)Cc1cc(F)ccc1F)CNC(=O)C(O)C(N)Cc1ccc(-c2ccsc2)cc1 (centres unmarked) [drawing 280] | 6.3 µM | 4.6 µM
5 | NC(CC(=O)NCCNC(=O)C(O)C(N)Cc1ccccc1)Cc1ccc2ccccc2c1 (centres unmarked) [drawing 219] | 34 µM | 30.4 µM
6 | NC(CNC(=O)c1cccc(NC(=O)C(O)C(N)Cc2ccc(-c3cccnc3)cc2)c1)Cc1cc(F)ccc1F (centres unmarked) [drawing 285] | 24.3 µM | 37.8 µM
7 | CCC(CC)(CNC(=O)CC(N)Cc1ccccc1)CNC(=O)C(O)C(N)Cc1ccccc1 (centres unmarked) [drawing 228] | 14.8 µM | 49.1 µM
8 | NC(CC(=O)NCCCCNC(=O)C(O)C(N)Cc1ccc(Br)cc1)Cc1cc(F)ccc1F (centres unmarked) [drawing 267] | 58.1 µM | 200 µM
9 | CN(CCCNC(=O)C(O)C(N)Cc1ccccc1)C(=O)CC(N)Cc1cc(F)ccc1F (centres unmarked) [drawing 243] | ≥ 200 µM | 157 µM
10 | NC(CC(=O)NCCNC(=O)C(O)C(N)Cc1ccccc1)Cc1ccccc1 (centres unmarked) [drawing 220] | ≥ 200 µM | 122 µM
11 | CCCC(=O)NC(CC(=O)NCC(C)(C)CNC(=O)C(O)C(Cc1ccccc1)NC(=O)CCC)Cc1cc(F)ccc1F (centres unmarked) [drawing 244] | 53.9 µM | 54.5 µM
12 | NC(CNC(=O)c1cccc(NC(=O)C(O)C(N)Cc2ccccc2)c1)Cc1cc(F)ccc1F (centres unmarked) [drawing 277] | 21.4 µM | 27.2 µM
13 | CCCCCCCC(=O)NC(CC(=O)NCC(C)(C)CNC(=O)C(O)C(Cc1ccccc1)NC(=O)CCCCCCC)Cc1cc(F)ccc1F (centres unmarked) [drawing 239] | 8.2 µM | 10.9 µM
14 | NC(CC(=O)NCCCCNC(=O)C(O)C(N)Cc1ccccc1)Cc1cc(F)ccc1F (centres unmarked) [drawing 231] | ≥ 200 µM | 134 µM
15 | NC(CC(=O)NCCCCNC(=O)C(O)C(N)Cc1ccccc1)C(=O)N1CCSC1 (centres unmarked) [drawing 248] | 35.2 µM | 28.3 µM
16 | NC(CC(=O)Nc1cccc(NC(=O)C(O)C(N)Cc2ccccc2)c1)Cc1cc(F)ccc1F (centres unmarked) [drawing 270] | 9.4 µM | 9.1 µM
17 | CC(C)(CNC(=O)CC(N)Cc1cc(F)ccc1F)CNC(=O)C1OC(=O)NC1Cc1ccc(-c2ccccc2)cc1 (centres unmarked) [drawing 275] | 139 µM | 200 µM
18 | CN(CCCN(C)C(=O)C(O)C(N)Cc1ccccc1)C(=O)CC(N)Cc1cc(F)ccc1F (centres unmarked) [drawing 238] | 70 µM | 122 µM
19 | CCCCCC(=O)OC(C(=O)NCC(C)(C)CNC(=O)CC(N)Cc1cc(F)ccc1F)C(N)Cc1ccccc1 (centres unmarked) [drawing 261] | 11.3 µM | 14.3 µM
20 | CC(C)(CNC(=O)CC(N)Cc1ccccc1)CNC(=O)CC(O)C(N)Cc1ccccc1 (centres unmarked) [drawing 230] | ≥ 200 µM | 200 µM
21 | NC(CC(=O)NCCCCNC(=O)C(O)C(N)Cc1ccccc1)Cc1ccccc1 (centres unmarked) [drawing 229] | ≥ 200 µM | 200 µM
22 | CC(C)(NC(=O)CC(N)Cc1ccccc1)C(C)(C)NC(=O)C(O)C(N)Cc1ccccc1 (centres unmarked) [drawing 226] | 16.1 µM | 46.9 µM
23 | NC(CC(=O)NCC1(CNC(=O)C(O)C(N)Cc2ccccc2)CCCCC1)Cc1cc(F)ccc1F (centres unmarked) [drawing 273] | 7 µM | 7.4 µM
24 | CCCCCCCCCCCCCC(=O)NC(CC(=O)NCC(C)(C)CNC(=O)C(O)C(Cc1ccccc1)NC(=O)CCCCCCCCCCCCC)Cc1cc(F)ccc1F (centres unmarked) [drawing 264] | 98.7 µM | 
25 | NC(CC(=O)NCCCCCNC(=O)C(O)C(N)Cc1ccccc1)Cc1ccccc1 (centres unmarked) [drawing 233] | ≥ 200 µM | 200 µM
26 | NC(CC(=O)N1CCCN(C(=O)C(O)C(N)Cc2ccccc2)CC1)Cc1cc(F)ccc1F (centres unmarked) [drawing 271] | 83.5 µM | 200 µM
27 | CC(C)(CNC(=O)CC(N)Cc1cc(F)ccc1F)CNC(=O)C(O)C(N)Cc1ccc(O)cc1 (centres unmarked) [drawing 279] | 37.6 µM | 43.2 µM
